From patent US12551484B2, “Methods of treatment and/or prevention of major adverse cardiovascular events (MACE) with a combination of a BET bromodomain inhibitor and a sodium dependent glucose transport 2 inhibitor” (Resverlogix Corp., priority 2019, dated 2026)
Like-named read-outs stand apart in the source and are kept apart here.

Assays:
[1] = test system: type 2 diabetes patients with low HDL cholesterol and a recent acute coronary syndrome (ACS); assay: BETonMACE Phase 3 trial (NCT02586155), post-hoc analysis by SGLT2 inhibitor use
Procedure: All patients received high intensity statin treatment as well as other evidence-based treatments.
Patients (n=2425) with ACS in the preceding 7 to 90 days, with type 2 diabetes and low HDL cholesterol (≤40 mg/dl for men, 45 mg/dl for women), receiving intensive or maximum-tolerated therapy with atorvastatin or rosuvastatin, were assigned in double-blind fashion to receive apabetalone 100 mg orally twice daily or matching placebo. […] The primary efficacy measure is time to first occurrence of cardiovascular death, non-fatal myocardial infarction, or stroke.
Those patients who received at least one dose of SGLT2 treatment after the date of the first incidence of event were censored as non-MACE events and the date of last contact was used as the censoring date.
The distributions of the endpoints within the apabetalone and placebo groups were compared using a two-sided log-rank test (LRT) with an alpha=0.05 level of significance. The cumulative incidence is shown as 1-KM (Kaplan-Meier) estimate for event rate.

type 2 diabetes patients [2] = conditions: human, in vivo; cited from earlier work
type 2 diabetes patients [3] = conditions: cited from earlier work
[4] = cardiovascular death, non-fatal myocardial infarction, or stroke, FIGS. 1-2
[5] = patients not treated with SGLT2 inhibitor, vs placebo (FIG. 2)
[6] = patients not treated with SGLT2 inhibitor, vs placebo (FIG. 5)
[7] = patients not treated with SGLT2 inhibitor, vs placebo (FIG. 8)
[8] = patients not treated with SGLT2 inhibitor, vs placebo (FIG. 11)
[9] = patients not treated with SGLT2 inhibitor, vs placebo (FIG. 14)
[10] = patients not treated with SGLT2 inhibitor, vs placebo (FIG. 17)

## COc1cc(OC)c2c(=O)[nH]c(-c3cc(C)c(OCCO)c(C)c3)nc2c1 [apabetalone, 2-(4-(2-hydroxyethoxy)-3,5-dimethylphenyl)-5,7-dimethoxyquinazolin-4(3H)-one]
[1]; at 18 months, FIGS. 1-2
  Kaplan-Meier estimated event rate, narrowly defined MACE: 8.0%
[1]; [4]
  primary end points (narrowly defined MACE), number in group: 111
  primary end points (narrowly defined MACE), percent of group: 10.5%
[1]; [5]
  Hazard Ratio [HR], narrowly defined MACE: 0.84
  reduction of number of patients having a narrowly defined MACE event at any given time: 16%
[1]; [6]
  Hazard Ratio [HR], broadly defined MACE: 0.87
  reduction of number of patients having a broadly defined MACE event at any given time: 13%
[1]; [7]
  Hazard Ratio [HR], non-fatal myocardial infarction: 0.85
  reduction of number of patients having a non-fatal myocardial infarction event at any given time: 15%
[1]; [8]
  Hazard Ratio [HR], cardiovascular death: 0.84
  reduction of number of patients having a cardiovascular death event at any given time: 16%
[1]; [9]
  Hazard Ratio [HR], hospitalization for cardiovascular diseases: 0.87
  reduction of number of patients having a hospitalization for cardiovascular diseases event at any given time: 13%
[1]; [10]
  Hazard Ratio [HR], hospitalization for congestive heart failure: 0.61
  reduction of number of patients having a hospitalization for congestive heart failure event at any given time: 39%

## Cc1ccc([C@@H]2O[C@H](CO)[C@@H](O)[C@H](O)[C@H]2O)cc1Cc1ccc(-c2ccc(F)cc2)s1 [Canaglifozin, canagliflozin]
Type 2 diabetes patients [2]
  HR, narrowly defined MACE: 0.86
  reduction of narrowly defined MACE: 14%
  reductions in the individual MACE events: did not reach statistical significance

## OC[C@H]1O[C@@H](c2ccc(Cl)c(Cc3ccc(O[C@H]4CCOC4)cc3)c2)[C@H](O)[C@@H](O)[C@@H]1O [empaglifozin, empagliflozin]
Type 2 diabetes patients [3]; human, in vivo
  HR, broadly defined MACE: 0.89
  HR, cardiovascular deaths: 0.62
  Hazard Ratio [HR], narrowly defined MACE: 0.86
  reduction of broadly defined MACE: 11%
  reduction of narrowly defined MACE: 14%
Type 2 diabetes patients [3]; with the exception of cardiovascular deaths, did not show any reduction
  HR, individual MACE events: 1.0
